{"source": "ChEMBL document CHEMBL4152220", "about": "“Discovery of new benzensulfonamide derivatives as tripedal STAT3 inhibitors” (Eur J Med Chem, 2018)", "key": {"[1]": {"molecular_target": "Signal transducer and activator of transcription 3 (Homo sapiens) (UniProt P40763)", "sequence (P40763 whole entry)": "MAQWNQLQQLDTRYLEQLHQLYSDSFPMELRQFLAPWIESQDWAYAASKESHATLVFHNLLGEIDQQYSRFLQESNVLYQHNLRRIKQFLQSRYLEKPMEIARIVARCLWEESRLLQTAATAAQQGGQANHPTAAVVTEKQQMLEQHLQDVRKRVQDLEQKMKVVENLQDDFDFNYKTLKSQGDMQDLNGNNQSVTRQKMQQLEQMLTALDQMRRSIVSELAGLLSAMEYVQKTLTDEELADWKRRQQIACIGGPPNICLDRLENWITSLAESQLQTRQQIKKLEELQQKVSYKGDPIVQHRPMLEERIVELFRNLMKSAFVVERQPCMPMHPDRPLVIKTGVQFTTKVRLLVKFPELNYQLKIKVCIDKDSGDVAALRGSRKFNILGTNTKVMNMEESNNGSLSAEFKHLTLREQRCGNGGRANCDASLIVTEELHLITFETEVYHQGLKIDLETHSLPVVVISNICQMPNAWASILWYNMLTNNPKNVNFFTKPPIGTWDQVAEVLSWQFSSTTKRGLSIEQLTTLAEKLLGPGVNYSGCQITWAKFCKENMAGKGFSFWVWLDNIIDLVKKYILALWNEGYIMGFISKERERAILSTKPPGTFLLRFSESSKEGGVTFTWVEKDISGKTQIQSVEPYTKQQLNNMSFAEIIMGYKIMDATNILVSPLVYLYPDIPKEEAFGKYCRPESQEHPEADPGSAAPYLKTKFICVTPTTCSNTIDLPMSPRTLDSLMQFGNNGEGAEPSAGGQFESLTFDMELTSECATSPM", "experiment": "Inhibition of STAT3 in human DU145 cells assessed as decrease in Bcl-2 protein level after 20 hrs by Western blot analysis", "assay_type": "cell-based"}, "HCT-116 [2]": {"tested_on": "HCT-116", "experiment": "Induction of apoptosis in human HCT116 cells assessed as necrotic cells at 12 uM after 20 hrs by Annexin V-APC/7-AAD staining-based flow cytometric analysis (reference value: 0.1%)", "assay_type": "functional"}, "Mus musculus [3]": {"tested_on": "Mus musculus", "experiment": "Toxicity in nude mouse xenografted with human HCT116 cells assessed as change in body weight at 10 to 20 mg/kg, ip dosed daily for 15 days", "assay_type": "organism-based", "settings": "in vivo, 360 h"}, "HCT-116 [4]": {"tested_on": "HCT-116", "experiment": "Induction of apoptosis in human HCT116 cells assessed as late apoptotic cells at 8 uM after 20 hrs by Annexin V-APC/7-AAD staining-based flow cytometric analysis (reference value: 0.0%)", "assay_type": "functional"}, "HCT-116 [5]": {"tested_on": "HCT-116", "experiment": "Induction of apoptosis in human HCT116 cells assessed as necrotic cells at 4 uM after 20 hrs by Annexin V-APC/7-AAD staining-based flow cytometric analysis (reference value: 0.1%)", "assay_type": "functional"}, "HCT-116 [6]": {"tested_on": "HCT-116", "experiment": "Antitumor activity against human HCT116 cells xenografted in nude mouse assessed as decrease in tumor volume at 20 mg/kg, ip dosed daily for 15 days relative to untreated control", "assay_type": "functional", "set-up": "scale not given: the % may be the effect or the level left"}, "HCT-116 [7]": {"tested_on": "HCT-116", "experiment": "Induction of apoptosis in human HCT116 cells assessed as early apoptotic cells at 12 uM after 20 hrs by Annexin V-APC/7-AAD staining-based flow cytometric analysis (reference value: 3.1%)", "assay_type": "functional"}, "[8]": {"molecular_target": "Proto-oncogene tyrosine-protein kinase Src (Homo sapiens) (UniProt P12931)", "sequence (P12931 2-536 limits assumed)": "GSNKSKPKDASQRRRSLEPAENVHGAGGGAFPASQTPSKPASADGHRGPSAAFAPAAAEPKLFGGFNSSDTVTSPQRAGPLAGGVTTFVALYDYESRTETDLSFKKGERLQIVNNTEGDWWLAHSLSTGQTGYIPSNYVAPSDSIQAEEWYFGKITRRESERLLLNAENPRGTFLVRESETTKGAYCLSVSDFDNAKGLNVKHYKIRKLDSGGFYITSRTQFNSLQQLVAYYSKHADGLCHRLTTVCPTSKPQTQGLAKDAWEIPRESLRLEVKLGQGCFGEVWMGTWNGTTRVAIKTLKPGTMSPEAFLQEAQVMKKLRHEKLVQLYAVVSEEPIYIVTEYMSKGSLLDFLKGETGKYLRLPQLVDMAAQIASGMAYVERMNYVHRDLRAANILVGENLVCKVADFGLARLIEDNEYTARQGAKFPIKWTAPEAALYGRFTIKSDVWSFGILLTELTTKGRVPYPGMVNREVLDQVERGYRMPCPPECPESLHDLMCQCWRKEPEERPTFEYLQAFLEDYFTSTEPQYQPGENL", "experiment": "Inhibition of Src phosphorylation in human HCT116 cells at 4 to 12 uM after 20 hrs by Western blot analysis", "assay_type": "cell-based"}, "HCT-116 [9]": {"tested_on": "HCT-116", "experiment": "Antitumor activity against human HCT116 cells xenografted in nude mouse assessed as decrease in tumor volume at 10 mg/kg, ip dosed daily for 15 days relative to untreated control", "assay_type": "functional", "set-up": "scale not given: the % may be the effect or the level left"}, "HCT-116 [10]": {"tested_on": "HCT-116", "experiment": "Induction of apoptosis in human HCT116 cells assessed as late apoptotic cells at 12 uM after 20 hrs by Annexin V-APC/7-AAD staining-based flow cytometric analysis (reference value: 0.0%)", "assay_type": "functional"}, "Mus musculus [11]": {"tested_on": "Mus musculus", "experiment": "Toxicity in ICR mouse assessed as mortality at 10 to 80 mg/kg, ip measured up to 2 weeks post treatment", "assay_type": "organism-based", "settings": "in vivo, 336 h"}, "HCT-116 [12]": {"tested_on": "HCT-116", "experiment": "Induction of apoptosis in human HCT116 cells after 20 hrs by Annexin V-APC/7-AAD staining-based flow cytometric analysis", "assay_type": "functional, cell-based"}, "HCT-116 [13]": {"tested_on": "HCT-116", "experiment": "Induction of apoptosis in human HCT116 cells assessed as viable cells at 12 uM after 20 hrs by Annexin V-APC/7-AAD staining-based flow cytometric analysis (reference value: 96.8%)", "assay_type": "functional", "settings": "HCT-116, 20 h, read-out: Activity"}, "HCT-116 [14]": {"tested_on": "HCT-116", "experiment": "Induction of apoptosis in human HCT116 cells assessed as viable cells at 4 uM after 20 hrs by Annexin V-APC/7-AAD staining-based flow cytometric analysis (reference value: 96.8%)", "assay_type": "functional", "settings": "HCT-116, 20 h, read-out: Activity"}, "HCT-116 [15]": {"tested_on": "HCT-116", "experiment": "Inhibition of colony formation in human HCT116 cells treated for 20 hrs and measured after 2 weeks by crystal violet staining-based assay", "assay_type": "functional, cell-based"}, "[16]": {"molecular_target": "Signal transducer and activator of transcription 3 (Homo sapiens) (UniProt P40763)", "experiment": "Inhibition of STAT3 phosphorylation at Y705 residue in human HCT116 cells after 20 hrs by Western blot analysis", "assay_type": "cell-based"}, "HCT-116 [17]": {"tested_on": "HCT-116", "experiment": "Antiproliferative activity against human HCT116 cells after 48 hrs by MTT assay", "assay_type": "functional, cell-based", "settings": "HCT-116, 48 h"}, "HCT-116 [18]": {"tested_on": "HCT-116", "experiment": "Induction of apoptosis in human HCT116 cells assessed as necrotic cells at 8 uM after 20 hrs by Annexin V-APC/7-AAD staining-based flow cytometric analysis (reference value: 0.1%)", "assay_type": "functional"}, "HCT-116 [19]": {"tested_on": "HCT-116", "experiment": "Induction of apoptosis in human HCT116 cells assessed as early apoptotic cells at 8 uM after 20 hrs by Annexin V-APC/7-AAD staining-based flow cytometric analysis (reference value: 3.1%)", "assay_type": "functional"}, "[20]": {"molecular_target": "Signal transducer and activator of transcription 3 (Homo sapiens) (UniProt P40763)", "experiment": "Inhibition of STAT3 in human HCT116 cells assessed as reduction in IL6 induced STAT3 phosphorylation at Y705 residue preincubated for 10 hrs followed by IL6 stimulation and measured after 30 mins by Western blot analysis", "assay_type": "cell-based"}, "Mus musculus [21]": {"tested_on": "Mus musculus", "experiment": "Toxicity in ICR mouse assessed as abnormal behavior at 10 to 80 mg/kg, ip measured up to 2 weeks post treatment", "assay_type": "organism-based", "settings": "in vivo, 336 h"}, "HCT-116 [22]": {"tested_on": "HCT-116", "experiment": "Antitumor activity against human HCT116 cells xenografted in nude mouse assessed as decrease in tumor weight at 10 mg/kg, ip dosed daily for 15 days relative to untreated control", "assay_type": "functional", "set-up": "scale not given: the % may be the effect or the level left"}, "HCT-116 [23]": {"tested_on": "HCT-116", "experiment": "Induction of apoptosis in human HCT116 cells assessed as late apoptotic cells at 4 uM after 20 hrs by Annexin V-APC/7-AAD staining-based flow cytometric analysis (reference value: 0.0%)", "assay_type": "functional"}, "HCT-116 [24]": {"tested_on": "HCT-116", "experiment": "Antitumor activity against human HCT116 cells xenografted in nude mouse assessed as decrease in tumor weight at 20 mg/kg, ip dosed daily for 15 days relative to untreated control", "assay_type": "functional", "set-up": "scale not given: the % may be the effect or the level left"}, "[25]": {"molecular_target": "T1, Signal transducer and activator of transcription 1-alpha/beta (Homo sapiens) (UniProt P42224)", "T1 sequence (whole entry)": "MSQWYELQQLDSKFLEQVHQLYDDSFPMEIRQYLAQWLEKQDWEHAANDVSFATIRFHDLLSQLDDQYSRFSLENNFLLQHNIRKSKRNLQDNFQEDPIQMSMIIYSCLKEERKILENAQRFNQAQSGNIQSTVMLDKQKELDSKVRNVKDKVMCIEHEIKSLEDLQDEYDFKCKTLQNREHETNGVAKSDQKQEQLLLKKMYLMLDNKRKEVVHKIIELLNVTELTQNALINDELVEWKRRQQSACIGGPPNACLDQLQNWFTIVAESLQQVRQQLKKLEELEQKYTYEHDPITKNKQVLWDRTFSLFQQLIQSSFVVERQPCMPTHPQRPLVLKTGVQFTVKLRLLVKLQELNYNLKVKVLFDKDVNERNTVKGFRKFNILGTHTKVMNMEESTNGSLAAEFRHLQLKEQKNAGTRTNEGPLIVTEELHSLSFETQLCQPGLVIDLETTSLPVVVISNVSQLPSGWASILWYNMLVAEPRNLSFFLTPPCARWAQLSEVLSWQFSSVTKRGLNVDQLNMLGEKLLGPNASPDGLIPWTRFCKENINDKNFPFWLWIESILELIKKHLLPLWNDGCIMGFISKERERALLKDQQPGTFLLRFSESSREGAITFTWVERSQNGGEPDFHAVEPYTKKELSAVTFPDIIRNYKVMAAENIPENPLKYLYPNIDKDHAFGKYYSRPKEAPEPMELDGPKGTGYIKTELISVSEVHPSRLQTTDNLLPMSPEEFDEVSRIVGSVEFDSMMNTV", "experiment": "Inhibition of STAT1 phosphorylation at Y701 residue in human HCT116 cells at 10 uM after 20 hrs by Western blot analysis", "assay_type": "cell-based"}, "HCT-116 [26]": {"tested_on": "HCT-116", "experiment": "Induction of apoptosis in human HCT116 cells assessed as increase in cleaved caspase9 level after 20 hrs by Western blot analysis", "assay_type": "functional, cell-based"}, "HCT-116 [27]": {"tested_on": "HCT-116", "experiment": "Induction of apoptosis in human HCT116 cells assessed as early apoptotic cells at 4 uM after 20 hrs by Annexin V-APC/7-AAD staining-based flow cytometric analysis (reference value: 3.1%)", "assay_type": "functional"}}, "note": "Activity calls are given as the source filed them. The calls are words filed in the database; no cut-off is given here.", "data": [{"smiles": "CC(C)c1ccc(CN(Cc2c(F)c(F)c(F)c(F)c2F)c2cccc(S(N)(=O)=O)c2)cc1", "values": [{"measurement": "inhibition", "setting": "[1]", "result": "Dose-dependent effect"}, {"measurement": "Activity", "setting": "HCT-116 [2]", "result": 0.5, "unit": "%"}, {"measurement": "Activity", "setting": "Mus musculus [3]", "result": "Non-Toxic"}, {"measurement": "Activity", "setting": "HCT-116 [4]", "result": 0.2, "unit": "%"}, {"measurement": "Activity", "setting": "HCT-116 [5]", "result": 0.1, "unit": "%"}, {"measurement": "Activity", "setting": "HCT-116 [6]", "result": 58.12, "unit": "%"}, {"measurement": "Activity", "setting": "HCT-116 [7]", "result": 21.9, "unit": "%"}, {"measurement": "inhibition", "setting": "[8]", "result": "inactive"}, {"measurement": "Activity", "setting": "HCT-116 [9]", "result": 35.69, "unit": "%"}, {"measurement": "Activity", "setting": "HCT-116 [10]", "result": 0.6, "unit": "%"}, {"measurement": "Activity", "setting": "Mus musculus [11]", "result": "Non-Toxic"}, {"measurement": "Activity", "setting": "HCT-116 [12]", "result": "Dose-dependent effect"}, {"measurement": "viability at 12 µM", "setting": "HCT-116 [13]", "result": 77, "unit": "%"}, {"measurement": "viability at 4 µM", "setting": "HCT-116 [14]", "result": 92.8, "unit": "%"}, {"measurement": "inhibition", "setting": "HCT-116 [15]", "result": "Dose-dependent effect"}, {"measurement": "inhibition", "setting": "[16]", "result": "Dose-dependent effect"}, {"measurement": "IC50", "setting": "HCT-116 [17]", "result": 6.66, "unit": "µM"}, {"measurement": "Activity", "setting": "HCT-116 [18]", "result": 0.3, "unit": "%"}, {"measurement": "Activity", "setting": "HCT-116 [19]", "result": 9.9, "unit": "%"}, {"measurement": "inhibition", "setting": "[20]", "result": "Dose-dependent effect"}, {"measurement": "Activity", "setting": "Mus musculus [21]", "result": "Non-Toxic"}, {"measurement": "Activity", "setting": "HCT-116 [22]", "result": 41.3, "unit": "%"}, {"measurement": "Activity", "setting": "HCT-116 [23]", "result": 0, "unit": "%"}, {"measurement": "Activity", "setting": "HCT-116 [24]", "result": 56.84, "unit": "%"}, {"measurement": "inhibition", "setting": "[25]", "result": "inactive"}, {"measurement": "Activity", "setting": "HCT-116 [26]", "result": "Dose-dependent effect"}, {"measurement": "Activity", "setting": "HCT-116 [27]", "result": 7, "unit": "%"}]}]}
